Patent EP2229935A1, “Peptide derivatives or pharmaceutically acceptable salts thereof, method for producing the same, use of said derivatives and pharmaceutical composition” (Nebolsin, Vladimir Evgenievich, priority 1997, dated 1999)
Marks after values point to notes of the source that are not given here.

Columns and labels:
[1] = test system: γ-interferon; assay: γ-interferon production by splenocytes after stress; assay type: in vivo, Balb male mice; conditions: 50 µg/kg orally
Description: (§1) Experiments were carried out on inbred Balb male mice with initial body mass 16-18 g. Each group included 12 animals. The model of swimming in warm water for 20 minutes was used to develop emotional-locomotory stress in animals. Stress development was estimated by the activity of natural killer lymphocytes (NK cells) and by functioning of the interferon system [Sukhikh T.G., Nossik N.N., Parshina O.V., Van'ko L.V., Meerson F.Z., Yershov F.I. Relationship between the natural cellular cytotoxicity system and the interferon system in immobilization stress. Bulletin of Experimental Biology (1984), ? , pp.593-595].
(§2) In studying interferon reaction of mouse splenocytes spleen cells were placed into incubation medium (the RPMI-1640 medium + 10% fetal calf serum), their concentration was brought to 1-3 x 10^8 cells/ml and they were incubated at 37°C for 24 hours. Newcasle disease virus (α-interferon induction) and FGA mitogen (γ-interferon induction) were used as intereferon inducers [Nossik N.N., Bopegamage S.A., Yershov F.I. Properties of interferons produced by different cell populations. Acta microbiologica Hungarica (1988), Vol. 35, Iss. 4, pp. 397-403].
(§3) Animals were divided into four groups, each including 36 mice. • Group 1 - intact animals not subjected to stress and given normal saline (NS). • Group 2 - animals which ere subjected to stress effect and given NS. • Group 3 - animals which were subjected to stress effect and administered compound III. • Group 4 - animals which were subjected to stress effect and administered compound XLIV.
(§4) Activity of NK-cells and interferon state were dynamically determined in 4 hours following stress, in 24 hours and then by days 5, 7 and 10.

[2] = test system: Male guinea pigs; assay: Antigen-induced bronchospasm in actively sensitized guinea pigs; assay type: in vivo; conditions: sensitized guinea pigs
Description: Antiasthmatic effect of the test compounds was studied using an antigen-induced bronchospasm model in actively sensitized guinea pigs according to the Andersson method [Andersson P. Antigen induced bronchial anaphylaxis in actively sensitized guinea pig. Allergy (1980), Vol. 35, pp. 65-71].
Male guinea pigs were sensitized with intramuscular injection of 0.5 ml suspension comprising 20 micrograms ovalbumin (OVA, manufactured by the Sigma company [grade III]) and 100 mg Al(OH)3 per one animal. Anaphylaxis-provoking dose 150-200 µg/kg OVA in 0.1 ml normal saline was intravenously (v. jugularis) injected on day 26 after sensibilization. Bronchospasm induction and measuring external respiration parameters were carried out according to the method described in Yu-Hong L., Barnes P., Rogers D. Inhibition of neurogenic plasma exudation and bronchoconstriction by a K+ channel activator, BRL 38227, in guinea pig airways in vivo. Europ. J. Pharmacol. (?), Vol. 239, pp.257-259]. Measurement of respiration parameters was performed using a transducer (Ugo Basel, model 7020), connected with a cannula and a recorder (Millichrome), recording breathing amplitude. […] Efficacy of compounds was determined by change in bronchospasm value.
Inthal was used as a reference drug that was administered to animals at a dose 5 µg/kg according to the same dosage regimen as the test substances were administered. The control group of animals received equivalent amount of normal saline.
Groups of animals: group 1 - control; group 2 - animals given Inthal; group 3 - animals given oral compound XLIV; group IV - animals given oral compound III; group 5 - animals given intratracheal compound III; group 6 - animals given compound XLIX, group 7 - animals given compound XXXI, group 8 - animals given compound XLVI; group 9 - animals given compound VI, group 10 - animals given compound XLVIII.

[3] = test system: mongrel male mice; assay: Average lifetime of mice in a closed volume (hypoxia); assay type: in vivo
Description: The tests of determining average lifetime of animals in a closed volume and on the model of acute hypobaric hypoxia at the minimum atmospheric rarefaction (170-185 mm Hg) were used to study antihypoxic activity of the compunds of general formula (I).
Mice were one by one placed into sealed glass jars and their lifetime was recorded.
The experiment was carried out on 90 mongrel male mice having initial body mass 20 ± 0,5 g housed in cages by 10 animals and given a standard vivarium ration. Average lifetime of mice in closed vessels having volume 250 ml was preliminarily determined and it was 22 to 25 minutes. All the groups included 10 animals each.
Experimental protocol: • a) - preliminary hypoxia for 12 minutes; • b) - first administration of a compound immediately following preliminary hypoxia; • c) - second administration of a compound in 24 hours after the first one, then daily for three days; • d) - recording lifetime of animals under hypoxic conditions in a sealed space 2 hours after the last administration of a compound.
The test compounds were dissolved in distilled water and orally administered to animals for 5 days.
Experimental groups: • Group 1 -(control) - without preliminary hipoxia with oral administration of distilled water for 5 days; • Groups 2 and 3 - administration of the compound XLIV using two doses 50 and 500 µg respectively; • Group 4 - oral administration of sodium oxybutyrate at a dose […] 2 hours before hypoxia; • Group 5 -(control)- with preliminary hypoxia for 12 minutes with subsequent administration of distilled water for 5 days; • Groups 6 and 7 - administration of the compound XLIV using two doses 50 and 500 µg respectively; • Groups 8 and 9 - administration of the compound III using two doses 50 and 500 µg respectively.

[4] = test system: α-interferon; assay: α-interferon production by splenocytes after stress; assay type: in vivo, Balb male mice; conditions: 50 µg/kg orally
Description: as §1, §2, §3, §4

[5] = test system: Salmonella spp.; assay: Resistance of mice to Salmonella spp. infection; assay type: in vivo; conditions: test compounds 500 µg/kg orally; for MLT: mean lifetime
Description: Effect of the compounds of general formula (I) on change in average lifetime of experimental animals infected with Salmonella spp.
Experiments were carried out on mongrel white mice of both sexes weighing 18-22 g. Compounds III, XLIV and the reference drug sodium nucleinate were administered orally for 3 days (a total of 6 times) prior and post infection (dosage regimen -3, -2, -1, 0, 1, 2, 3, where 0 is infection day). A 24-hour Salmonella spp. culture grown on Hottinger agar, was used for infecting. Normal saline solution was used to prepare cellular suspension. Suspension of Salmonella spp. cells was administered subcutaneously at a dose 5 x 10^8 cells per a mouse in 0.5 ml.

[6] = 50 µg/kg per os, 72, 48 and 18 hours prior to bronchospasm induction
[7] = with preliminary hypoxia 12 minutes, oral 5 days, 0,05 mg/kg
[8] = with preliminary hypoxia 12 minutes, oral 5 days, 0,50 mg/kg
[9] = Day 1 following infection, regimen -3..3

Compound | γ-interferon, U/ml ([1]; 0 days after stress) [U/ml] | γ-interferon, U/ml ([1]; 0.16 days after stress) [U/ml] | γ-interferon, U/ml ([1]; 1 day after stress) [U/ml] | γ-interferon, U/ml ([1]; 5 days after stress) [U/ml] | γ-interferon, U/ml ([1]; 7 days after stress) [U/ml] | γ-interferon, U/ml ([1]; 10 days after stress) [U/ml] | Bronchospasm (percent of the maximum value) [2, 6] | Lifetime (seconds) [3, 7] | Lifetime (seconds) [3, 8] | α-interferon, U/ml ([4]; 0 days after stress) [U/ml] | α-interferon, U/ml ([4]; 0.16 days after stress) [U/ml] | α-interferon, U/ml ([4]; 1 day after stress) [U/ml] | α-interferon, U/ml ([4]; 5 days after stress) [U/ml] | α-interferon, U/ml ([4]; 7 days after stress) [U/ml] | α-interferon, U/ml ([4]; 10 days after stress) [U/ml] | Number of dead mice [5, 9] | Number of dead mice ([5]; Day 3 following infection) | Number of dead mice ([5]; Day 5 following infection) | Number of dead mice ([5]; Day 6 following infection) | Number of dead mice ([5]; Day 7 following infection) | further results
O=C(O)CCCC(=O)NCCc1c[nH]cn1 [compound III, N-GLUTARYLHISTAMINE] | 80 | 80 | 32 | 32 | 320 | 80 | 12.0 4.0** percent of the maximum value | 1670,6±25,3*^5 seconds | 1532,6±96,0 seconds | 160 | 10 | 10 | 160 | 160 | 160 | 1 | 1 | 1 | 2 | 2 | Bronchospasm (percent of the maximum value) ([2]; 50 µg/kg intratracheally, 15 minutes prior to bronchospasm induction): 24.6 6.4* percent of the maximum value; Number of dead mice ([5]; Day 2 following infection): 1*^1; Number of dead mice ([5]; Day 4 following infection): 2; MLT [5]: 4.5 ± 0.65 days
γ-L-glutamylhistamine [compound XLIV] | 80 | 20 | 320 | 40 | 32 | 32 | 15.6 3.2** percent of the maximum value | 1415,5±47,2 seconds | 1844,8±93,2*^5 seconds | 160 | 10 | 80 | 80 | 100 | 140 | 3*^2 | 1 | 5 | 2 | 1 | Lifetime (seconds) ([3]; without preliminary hypoxia, oral 5 days, 0,05 mg/kg): 2110,6±123,6**^1 seconds; Lifetime (seconds) ([3]; without preliminary hypoxia, oral 5 days, 0,50 mg/kg): 1742,8±68,1*^1 seconds; MLT [5]: 4.0 ± 0.73 days
